Patent US9528092B2, “Methods of efficiently establishing induced pluripotent stem cells under hypoxic conditions” (Kyoto University, priority 2008, dated 2016)

Tested on: four-factor transduced MEFs
Assay: Flow cytometric analysis of Nanog-GFP-positive cells on day 9 posttransduction
Type: cell-based, mouse
Conditions: day 5 to day 9 posttransduction, flow cytometry on day 9, four factors alone 0.01%
Description: Mice having a Nanog reporter were used as an experimental system. The Nanog reporter used was prepared by inserting the enhanced green fluorescent protein (EGFP) and puromycin resistant genes into the Nanog locus of a BAC (bacterial artificial chromosome) purchased from BACPAC Resources [Okita K. et al., Nature 448, 313-317 (2007)]. The mouse Nanog gene is expressed specifically in pluripotent cells such as ES cells and early embryos. The mouse iPS cells that have become positive for this reporter are known to be nearly equivalent to ES cells in terms of differentiation potential. Mouse embryonic fibroblasts (MEFs) and tail-tip fibroblasts (TTFs) obtained from a Nanog reporter mouse having this Nanog reporter [Okita K. et al., Nature 448, 313-317 (2007)] were transfected by means of retroviruses to establish iPS cells, and colonies expressing EGFP from the Nanog reporter were counted to evaluate the efficiency of establishment of iPS cells.
To investigate whether GFP-positive cells were detected earlier or not, the four-factor transduced MEFs were cultivated under 20% oxygen or under 5% oxygen with or without 2 mM valproic acid (VPA) from day 5 to day 9 posttransduction, and were subjected to flow cytometric analysis on day 9. Retroviral expression of four factors induced 0.01% of the cells to become GFP-positive on day 9 posttransduction. […]

Structure (SMILES): CCCC(CCC)C(=O)O [VPA, valproic acid]
- percentage of GFP-positive cells (2 mM VPA, 20% oxygen): 0.48%
- percentage of GFP-positive cells (co-treatment with hypoxia (5% oxygen) and 2 mM VPA): 2.28%
